{"source": "PubChem BioAssay AID651586", "about": "(Broad Institute, 2012)", "tested_on": "SK-MEL-5 viability, CellTiter-Glo ATP luminescence, 24 h", "test": "growth inhibition of SK-MEL-5 melanoma cells – cell-based, CellTiter-Glo luminescence, dry powder, set 8, orthogonal assay for MITF inhibitor project, dose response (AID 651586)", "note": "“And” between values parts separate entries of the source, which are not always exact repeats. Equal entries are not always repeated.", "data": [{"smiles": "O=C1C=C(Nc2ccccc2)C(=O)c2ccccc21", "values": [{"measurement": "IC50", "result": "2.56 µM and 6.21 µM"}]}]}
